PMC4959752, “Pharmacokinetics in Wistar Rats of 5-[(4-Carboxybutanoyl)Amino]-2-Hydroxybenzoic Acid: A Novel Synthetic Derivative of 5-Aminosalicylic Acid (5-ASA) with Possible Anti-Inflammatory Activity” (PLoS ONE, 2016)
“And” between values parts separate entries of the source, which are not always exact repeats. Equal values may be shown once. “Also recorded” adds a separate entry of the source.

Columns and labels:
[1] = Tissue distribution study; type: in vivo, Wistar rats
Procedure: […] The animals were sacrificed 10, 30, 90, 180 and 360 min after dosing (n = 3 per treatment time). The whole brain, heart, liver, spleen, lung, kidney, stomach, small intestine, colon, testicles and muscle were rapidly dissected, harvested and thoroughly rinsed in ice-cold saline to eliminate blood and other content. All tissues and organs were weighed on an analytical balance and immediately processed for analysis. Each tissue sample was homogenized with saline solution at a 1:3 (wt/v) ratio. The preparation process for analysis was the same as that described above for plasma.

Log P = type: physicochemical; conditions: method not given
[2] = Blood-plasma partitioning (BP ratio); type: in vitro ADME, Wistar rats; conditions: Wistar rat blood, 37°C, 4 h
Procedure: […] The plasma was separated from blood samples, and the concentration of C2 was determined based on a standard curve prepared with blank plasma using the RP-HPLC method. […] The concentration of C2 in blood cells was assumed to be equal to its unbound concentration in the plasma.

[3] = Stability of C2 in rat plasma samples; type: in vitro ADME; conditions: for Difference respect the nominal concentration (%): rat plasma deproteinized samples
Procedure: The stability of C2 in plasma was evaluated using the QC samples at two concentrations by triplicate ([…]); these samples were stored at 25°C for 12, 24 and 36 h (short-term stability) and subjected to three freeze-thaw cycles (–20°C to 25°C). The post-preparative storage was evaluated by analyzing the ready-to-inject samples that had been refrigerated 4°C for 12, 24 and 36 h. The concentration of C2 after each storage period was related to the initial concentration of freshly prepared and immediately processed samples [40, 41].

MPO = system: MPO; parameters: method as in ref 34 = [34]; 34 Gutiérrez Sánchez M , Rosales-Hernández MC , Padilla-Martínez II , Correa-Basurto J , Mendieta-Wejebe JE . In vivo evaluation of two 5-aminosalicylic acid derivatives considered as potential therap; conditions: model of inflammation in the mouse ear; cited from earlier work
CD1 mice = system: CD1 mice; parameters: method as in ref 37 = [37]; 37 OECD Guidelines for the Testing of Chemicals 425: Acute Oral Toxicity—Up-and-Down-Procedure (UDP). 2008.; conditions: acute toxicity; cited from earlier work

Structure (SMILES): O=C(O)CCCC(=O)Nc1ccc(O)c(C(=O)O)c1 [C2, 5-[(4-carboxybutanoyl)amino]-2-hydroxybenzoic acid]
- crossing of blood-brain barrier / hemato-testicular barrier (presence in brain and testicles) ([1]; Wistar rats, i.g. and i.p.): effectively crossed the blood-brain barrier and hemato-testicular barrier; also recorded: able to cross the blood brain barrier
- tissue distribution ([1]; i.g. and i.p. routes, before the 2 h time point): widely distributed in all examined tissues
- tissue distribution ([1]; single intragastric or oral dose (100 mg/kg), Wistar rats, 100 mg/kg): distributed and detected in all examined tissues (including the brain and colon); also recorded: well distributed in all tissues
- logP (Log P): 1.3
- BP ratio ± SD ([2]; 5 μg/mL): 0.71 and 0.71 ± 0.01
- BP ratio ± SD ([2]; 10 μg/mL): 0.6 and 0.60 ± 0.03
- Difference respect the nominal concentration (%) ([3]; Refrigeration (4°C), 12 h, 1 μg/mL): 0.8%
- Difference respect the nominal concentration (%) ([3]; Refrigeration (4°C), 12 h, 2.5 μg/mL): 1.5%
- Difference respect the nominal concentration (%) ([3]; Refrigeration (4°C), 12 h, 25 μg/mL): 0.1%
- Difference respect the nominal concentration (%) ([3]; Refrigeration (4°C), 12 h, 100 μg/mL): 0.5%
- Difference respect the nominal concentration (%) ([3]; Refrigeration (4°C), 24 h, 1 μg/mL): 2.2%
- Difference respect the nominal concentration (%) ([3]; Refrigeration (4°C), 24 h, 2.5 μg/mL): 2.6%
- Difference respect the nominal concentration (%) ([3]; Refrigeration (4°C), 24 h, 25 μg/mL): 3.1%
- Difference respect the nominal concentration (%) ([3]; Refrigeration (4°C), 24 h, 100 μg/mL): 0.4%
- Difference respect the nominal concentration (%) ([3]; Refrigeration (4°C), 36 h, 1 μg/mL): 5.3%
- Difference respect the nominal concentration (%) ([3]; Refrigeration (4°C), 36 h, 2.5 μg/mL): 2.9%
- Difference respect the nominal concentration (%) ([3]; Refrigeration (4°C), 36 h, 25 μg/mL): 4.3%
- Difference respect the nominal concentration (%) ([3]; Refrigeration (4°C), 36 h, 100 μg/mL): 0.6%
- Difference respect the nominal concentration (%) ([3]; Room Temperature (25°C), 12 h, 1 μg/mL): 1.4%
- Difference respect the nominal concentration (%) ([3]; Room Temperature (25°C), 12 h, 2.5 μg/mL): 1.0%
- Difference respect the nominal concentration (%) ([3]; Room Temperature (25°C), 12 h, 25 μg/mL): 0.3%
- Difference respect the nominal concentration (%) ([3]; Room Temperature (25°C), 12 h, 100 μg/mL): 0.3%
- Difference respect the nominal concentration (%) ([3]; Room Temperature (25°C), 24 h, 1 μg/mL): 2.1%
- Difference respect the nominal concentration (%) ([3]; Room Temperature (25°C), 24 h, 2.5 μg/mL): 2.3%
- Difference respect the nominal concentration (%) ([3]; Room Temperature (25°C), 24 h, 25 μg/mL): 2.9%
- Difference respect the nominal concentration (%) ([3]; Room Temperature (25°C), 24 h, 100 μg/mL): 0.7%
- Difference respect the nominal concentration (%) ([3]; Room Temperature (25°C), 36 h, 1 μg/mL): 5.8%
- Difference respect the nominal concentration (%) ([3]; Room Temperature (25°C), 36 h, 2.5 μg/mL): 2.6%
- Difference respect the nominal concentration (%) ([3]; Room Temperature (25°C), 36 h, 25 μg/mL): 3.7%
- Difference respect the nominal concentration (%) ([3]; Room Temperature (25°C), 36 h, 100 μg/mL): 1.7%
- Difference respect the nominal concentration (%) ([3]; freeze–thaw (–20 to 25°C), Cycle 2 (24 h), 1 μg/mL): 2.7%
- Difference respect the nominal concentration (%) ([3]; freeze–thaw (–20 to 25°C), Cycle 2 (24 h), 2.5 μg/mL): 2.9%
- Difference respect the nominal concentration (%) ([3]; freeze–thaw (–20 to 25°C), Cycle 2 (24 h), 25 μg/mL): 1.7%
- Difference respect the nominal concentration (%) ([3]; freeze–thaw (–20 to 25°C), Cycle 2 (24 h), 100 μg/mL): 0.5%
- Difference respect the nominal concentration (%) ([3]; freeze–thaw (–20 to 25°C), Cycle 3 (36 h), 1 μg/mL): 6.0%
- Difference respect the nominal concentration (%) ([3]; freeze–thaw (–20 to 25°C), Cycle 3 (36 h), 2.5 μg/mL): 5.1%
- Difference respect the nominal concentration (%) ([3]; freeze–thaw (–20 to 25°C), Cycle 3 (36 h), 25 μg/mL): 1.7%
- Difference respect the nominal concentration (%) ([3]; freeze–thaw (–20 to 25°C), Cycle 3 (36 h), 100 μg/mL): 0.6%
- Difference respect the nominal concentration (%) ([3]; freeze–thaw (–20 to 25°C), cycle 1 (12 h), 1 μg/mL): 1.8%
- Difference respect the nominal concentration (%) ([3]; freeze–thaw (–20 to 25°C), cycle 1 (12 h), 2.5 μg/mL): 1.8%
- Difference respect the nominal concentration (%) ([3]; freeze–thaw (–20 to 25°C), cycle 1 (12 h), 25 μg/mL): 2.0%
- Difference respect the nominal concentration (%) ([3]; freeze–thaw (–20 to 25°C), cycle 1 (12 h), 100 μg/mL): 0.5%
- stability in rat plasma ([3]; stored at 4°C and 25°C for 36 h): stable
- effect on catalytic activity of MPO (MPO): inhibited the catalytic activity of MPO
- LD50 (CD1 mice): > 2000 mg/kg
